Structures can show the parent of a compound that is named as a salt.
Key:
human TLR8 = target: T1, human TLR8 (Homo sapiens, UniProt Q9NR97); assay: HEK-Blue hTLR8 reporter cell assay (SEAP, NF-kB/AP-1) for stimulation of human TLR8; assay type: cell-based; conditions: HEK-Blue hTLR8 cells; for EC50: 24 h incubation, SEAP readout, read-out: TLR8_EC50
T1 construct: host or cells: HEK293 (HEK-Blue hTLR8)
T1 sequence (Q9NR97 27-1041): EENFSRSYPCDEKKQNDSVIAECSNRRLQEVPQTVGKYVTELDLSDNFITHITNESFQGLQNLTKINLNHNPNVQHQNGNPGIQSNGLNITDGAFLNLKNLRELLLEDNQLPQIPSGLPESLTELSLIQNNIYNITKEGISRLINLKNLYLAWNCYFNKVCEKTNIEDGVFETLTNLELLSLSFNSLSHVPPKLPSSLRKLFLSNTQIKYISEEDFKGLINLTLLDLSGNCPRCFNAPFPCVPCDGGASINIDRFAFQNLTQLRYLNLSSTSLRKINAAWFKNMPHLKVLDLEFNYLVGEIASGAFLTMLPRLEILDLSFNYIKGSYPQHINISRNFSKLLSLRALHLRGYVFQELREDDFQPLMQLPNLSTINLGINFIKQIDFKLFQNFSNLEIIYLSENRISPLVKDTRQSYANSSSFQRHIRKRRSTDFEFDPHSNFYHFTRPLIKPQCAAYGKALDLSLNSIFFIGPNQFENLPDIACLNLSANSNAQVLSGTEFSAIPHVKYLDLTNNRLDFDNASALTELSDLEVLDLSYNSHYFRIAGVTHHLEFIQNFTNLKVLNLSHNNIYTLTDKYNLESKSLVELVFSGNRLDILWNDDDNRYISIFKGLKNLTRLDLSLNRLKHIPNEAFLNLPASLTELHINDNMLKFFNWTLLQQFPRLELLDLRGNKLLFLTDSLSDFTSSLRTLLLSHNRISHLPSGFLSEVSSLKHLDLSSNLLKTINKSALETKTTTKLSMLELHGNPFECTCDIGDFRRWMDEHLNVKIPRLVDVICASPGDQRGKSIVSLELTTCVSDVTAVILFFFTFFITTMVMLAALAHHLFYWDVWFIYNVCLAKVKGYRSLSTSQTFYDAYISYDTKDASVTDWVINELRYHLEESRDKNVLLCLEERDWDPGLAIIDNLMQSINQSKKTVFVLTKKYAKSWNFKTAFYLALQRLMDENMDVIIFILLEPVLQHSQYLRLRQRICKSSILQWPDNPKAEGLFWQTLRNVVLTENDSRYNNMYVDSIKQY
In short: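 HEK293 cells carrying hTLR8 and a SEAP reporter driven by NF-κB/AP-1 sites were seeded at 3.10E4 cells/well and held 18 to 24 h at 37° C., 5% CO2 before compound addition. Supernatant SEAP measured with QUANTI-Blue™.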

human TLR7 = target: T2, human TLR7 (Homo sapiens, UniProt Q9NYK1); assay: HEK-Blue hTLR7 reporter cell assay (SEAP, NF-kB/AP-1) for stimulation of human TLR7; assay type: cell-based; conditions: HEK-Blue hTLR7 cells; for EC50: 24 h incubation, SEAP readout, read-out: TLR7_EC50
T2 construct: host or cells: HEK293 (HEK-Blue hTLR7)
T2 sequence (Q9NYK1 27-1049): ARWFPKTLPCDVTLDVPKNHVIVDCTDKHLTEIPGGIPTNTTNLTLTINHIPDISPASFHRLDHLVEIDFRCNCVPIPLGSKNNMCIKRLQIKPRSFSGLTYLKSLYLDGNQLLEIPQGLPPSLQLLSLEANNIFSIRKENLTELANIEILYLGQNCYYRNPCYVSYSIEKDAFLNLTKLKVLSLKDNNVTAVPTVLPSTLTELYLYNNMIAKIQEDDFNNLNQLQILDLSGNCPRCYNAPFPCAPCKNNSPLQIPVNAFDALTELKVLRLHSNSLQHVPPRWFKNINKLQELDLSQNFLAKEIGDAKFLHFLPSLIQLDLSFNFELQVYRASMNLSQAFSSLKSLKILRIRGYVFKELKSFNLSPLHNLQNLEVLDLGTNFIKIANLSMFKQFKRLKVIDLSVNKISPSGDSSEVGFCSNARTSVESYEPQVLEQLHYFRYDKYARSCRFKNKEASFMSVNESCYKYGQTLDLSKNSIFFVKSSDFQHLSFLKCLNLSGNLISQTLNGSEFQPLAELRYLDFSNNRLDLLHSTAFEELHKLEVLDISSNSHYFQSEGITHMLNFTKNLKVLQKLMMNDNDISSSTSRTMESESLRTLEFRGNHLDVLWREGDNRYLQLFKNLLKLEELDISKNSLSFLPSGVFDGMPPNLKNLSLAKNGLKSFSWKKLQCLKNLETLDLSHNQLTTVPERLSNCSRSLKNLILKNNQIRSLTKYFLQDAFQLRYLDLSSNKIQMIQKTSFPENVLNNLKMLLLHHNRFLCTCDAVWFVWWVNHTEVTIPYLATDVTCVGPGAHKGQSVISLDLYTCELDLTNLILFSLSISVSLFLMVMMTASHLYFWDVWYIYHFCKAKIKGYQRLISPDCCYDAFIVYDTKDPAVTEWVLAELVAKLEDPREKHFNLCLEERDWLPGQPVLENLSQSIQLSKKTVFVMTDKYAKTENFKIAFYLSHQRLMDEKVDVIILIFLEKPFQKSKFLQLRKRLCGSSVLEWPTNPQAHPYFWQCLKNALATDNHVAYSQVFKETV
In short: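 HEK293 cells expressing hTLR7 with NF-κB/AP-1-driven SEAP reporter, seeded 3.10E4 cells/well, pre-incubated 18–24 h, then exposed to 3-fold compound dilutions (0.01–20 μM) for 24 h at 37 °C. Supernatant SEAP read with QUANTI-Blue; EC50 as concentration giving 50% activation.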

| Structure (SMILES) | EC50 (human TLR8) [µM] | EC50 (human TLR7) [µM] | activation at 20 µM (human TLR8; 24 h, at 20000 nM) [%] | activation at 20 µM (human TLR7; 24 h, at 20000 nM) [%] |
| --- | --- | --- | --- | --- |
| CCCCc1nc2c(N)nnc(OC(C)C)c2n1CCCCCCN(C(C)=O)C1CS(=O)(=O)C1 [Compound 155, N-[6-(7-amino-2-butyl-4-isopropoxy-imidazo[4,5-d]pyridazin-3-yl)hexyl]-N-(1,1-dioxothietan-3-yl)acetamide hydrochloride salt] | > 20 | 0.596 |  |  |
| CCCCOc1nnc(N)c2nc(CCCC)n(Cc3ccc(OC)cc3)c12 [Compound 8, 7-butoxy-2-butyl-1-(4-methoxybenzyl)-1H-imidazo[4,5-d]pyridazin-4-amine] | > 20 | 0.168 |  |  |
| CCCCc1nc2c(N)nnc(OC(C)C)c2n1Cc1ccc(CNC2CC2)cc1 [Compound 36, 2-butyl-1-(4-((cyclopropylamino)methyl)benzyl)-7-isopropoxy-1H-imidazo[4,5-d]pyridazin-4-amine] | 0.448 | 0.019 |  |  |
| CCCCc1nc2c(N)nnc(-c3ccn(C)c3)c2n1Cc1ccc(OC)cc1 [Compound 11, 2-butyl-1-(4-methoxybenzyl)-7-(1-methyl-1H-pyrrol-3-yl)-1H-imidazo[4,5d]pyridazin-4-amine] | > 20 | 0.192 |  |  |
| CCCCc1nc2c(N)nnc(OC(C)C)c2n1CCC1CCNCC1 [Compound 78, 2-butyl-7-isopropoxy-1-(2-(piperidin-4-yl)ethyl)-1H-imidazo[4,5-d]pyridazin-4-amine] | > 20 | 7.74 |  |  |
| CCCCc1nc2c(N)nnc(OC(C)C)c2n1CC(C)(C)O [Compound 24, 1-(4-amino-2-butyl-7-isopropoxy-1H-imidazo[4,5-d]pyridazin-1-yl)-2-methylpropan-2-ol] | 2.64 | 0.234 |  |  |
| CCCCc1nc2c(N)nnc(OC(C)C)c2n1Cc1ccc(C#N)cn1 [Compound 27, 6-((4-amino-2-butyl-7-isopropoxy-1H-imidazo[4,5-d]pyridazin-1-yl)methyl)nicotinonitrile] | > 20 | 2.1 |  |  |
| CCCCc1nc2c(N)nnc(OC(C)C)c2n1Cc1cccc(CN(C)C)c1 [Compound 125, 2-butyl-1-(3-((dimethylamino)methyl)benzyl)-7-isopropoxy-1H-imidazo[4,5-d]pyridazin-4-amine] | 0.115 | 0.392 |  |  |
| CCCCc1nc2c(N)nnc(OC3CC[S+]([O-])C3)c2n1Cc1ccc(OC)cc1 (single isomer, unassigned; isomer a) [Compound 65, 3-((4-amino-2-butyl-1-(4-methoxybenzyl)-1H-imidazo[4,5-d]pyridazin-7-yl)oxy)tetrahydrothiophene 1-oxide isomer A] | > 20 | 2.21 |  |  |
| CCCNc1nc2c(N)nnc(OC(C)C)c2n1Cc1ccc(CN)cc1 [Compound 163, 3-[[4-(aminomethyl)phenyl]methyl]-4-isopropoxy-N2-propyl-imidazo[4,5-d]pyridazine-2,7-diamine] |  |  | 15.4 | 16.7 |
| CCCCc1nc2c(N)nnc(NCc3ccc(CN)cc3)c2n1C [Compound 87, N7-(4-(aminomethyl)benzyl)-2-butyl-1-methyl-1H-imidazo[4,5-d]pyridazine-4,7-diamine] | > 20 | 8.52 |  |  |
| CCC[S+]([O-])c1nc2c(N)nnc(OC(C)C)c2n1Cc1ccc(CN)cc1 (stereo not shown) [Compound 162, 3-[[4-(aminomethyl)phenyl]methyl]-4-isopropoxy-2-propylsulfinyl-imidazo[4,5-d]pyridazin-7-amine] | > 20 | 6.7 |  |  |
| CCCCc1nc2c(N)nnc(OC(C)C)c2n1CC(CO)CO [Compound 157, 2-[(7-amino-2-butyl-4-isopropoxy-imidazo[4,5-d]pyridazin-3-yl)methyl]propane-1,3-diol; hydrochloride] | 0.007 | 0.531 |  |  |
| CCCCc1nc2c(N)nnc(-c3ccco3)c2n1Cc1ccc(OC)cc1 [Compound 55, 2-butyl-7-(furan-2-yl)-1-(4-methoxybenzyl)-1H-imidazo[4,5-d]pyridazine-4-amine] | > 20 | 1.57 |  |  |
| CCCCc1nc2c(N)nnc(OC(C)C)c2n1Cc1cccc(CNC)c1 [Compound 124, 2-butyl-7-isopropoxy-1-(3-((methylamino)methyl)benzyl)-1H-imidazo[4,5-d]pyridazin-4-amine] | 0.231 | 0.178 |  |  |
| CCCCc1nc2c(N)nnc(C3=CCCCC3)c2n1Cc1ccc(OC)cc1 [Compound 66, 2-butyl-7-(cyclohex-1-en-1-yl)-1-(4-methoxybenzyl)-1H-imidazo[4,5-d]pyridazin-4-amine] | > 20 | 2.88 |  |  |
| CCCCc1nc2c(N)nnc(OCCC)c2n1Cc1ccc(OC)cc1 [Compound 5, 2-butyl-1-(4-methoxybenzyl)-7-propoxy-1H-imidazo[4,5-d]pyridazin-4-amine] | > 20 | 0.145 |  |  |
| CCCCc1nc2c(N)nnc(OC(C)C)c2n1CCCCN(C(C)=O)C1CS(=O)(=O)C1 [Compound 153, N-[4-(7-amino-2-butyl-4-isopropoxy-imidazo[4,5-d]pyridazin-3-yl)butyl]-N-(1,1-dioxothietan-3-yl)acetamide] | > 20 | 18.4 |  |  |
| CCCCc1nc2c(N)nnc(-c3cccn3C)c2n1Cc1ccc(OC)cc1 [Compound 70, 2-butyl-1-(4-methoxybenzyl)-7-(1-methyl-1H-pyrrol-2-yl)-1H-imidazo[4,5-d]pyridazin-4-amine hydrochloride] | > 20 | 4 |  |  |
| CCCCc1nc2c(N)nnc(O[C@H]3CCOC3)c2n1Cc1ccc(OC)cc1 [Compound 54, (S)-2-butyl-1-(4-methoxybenzyl)-7-((tetrahydrofuran-3-yl)oxy)-1H-imidazo[4,5-d]pyridazin-4-amine] | > 20 | 0.61 |  |  |
| CCCCc1nc2c(N)nnc(OC(C)C)c2n1Cc1ccccc1 [Compound 80, 1-benzyl-2-butyl-7-isopropoxy-1H-imidazo[4,5-d]pyridazin-4-amine hydrochloride] | > 20 | 0.169 |  |  |
| CCCCc1nc2c(N)nnc(OC3CCSC3)c2n1Cc1ccc(OC)cc1 (stereo not shown) [Compound 58, 2-butyl-1-(4-methoxybenzyl)-7-((tetrahydrothiophen-3-yl)oxy)-1H-imidazo[4,5-d]pyridazin-4-amine] | > 20 | 0.433 |  |  |
| CCCCc1nc2c(N)nnc(C=C(C)C)c2n1Cc1ccc(OC)cc1 [Compound 60, 2-butyl-1-(4-methoxybenzyl)-7-(2-methylprop-1-en-1-yl)-1H-imidazo[4,5-d]pyridazin-4-amine] | > 20 | 0.813 |  |  |

— patent US12583861B2, “Derivatives of imidazo[4,5-d]pyridazine, their preparation and their therapeutic application” (SANOFI, priority 2021, dated 2026)
